Measured values taken from the supplement of paper PMC5579334.
± gives the standard deviation of the averaged measurements.

Assays:
[1] = tested on: HSC1 (primary human Schwann cells); test: drug sensitivity score (DSS, CellTox-Green cytotoxicity, 72 h) (DSS (dimensionless)); higher = more cytotoxic; extreme values may be limits of the assay
Outline: (§1)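 MPNST cell lines and primary human Schwann cells were incubated 72 h at 37 °C in 384-well plates holding five 10-fold compound dilutions. CellTox-Green was added before seeding at a final 1:1000 dilution and reported fluorescence from DNA released by disrupted cells. Signals were scaled to vehicle and positive-control wells, and cultures failing plate quality control were dropped. Drug sensitivity score and relative IC50 come from four-parameter logistic fits, with IC50 censored at the top concentration.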

[2] = tested on: S1507-2; test: as above
Outline: as §1

[3] = tested on: ST8814; test: as above
Outline: as §1

[4] = tested on: HS-PSS; test: as above
Outline: as §1

[5] = tested on: STS26T; test: as above
Outline: as §1

[6] = tested on: HSC2 (primary human Schwann cells); test: as above
Outline: as §1

[7] = tested on: HSC1 (primary human Schwann cells); test: % inhibition of CellTiter-Glo viability at highest tested concentration (72 h), relative to DMSO and benzethonium chloride controls; higher = more inhibition
Outline: (§2)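 MPNST cell lines and primary human Schwann cells (750–1000 cells per well) went into 384-well plates preprinted with each compound at five concentrations in 10-fold steps. Plates were incubated 72 h at 37 °C, 5% CO2. Viability was read as CellTiter-Glo ATP luminescence, scaled between vehicle and positive-control wells, with duplicates averaged where present. Percent inhibition is at the top concentration; drug sensitivity score and relative IC50 (censored at top concentration) come from four-parameter logistic fits.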

[8] = tested on: S1507-2; test: as above
Outline: as §2

[9] = tested on: ST8814; test: as above
Outline: as §2

[10] = tested on: S462; test: as above
Outline: as §2

[11] = tested on: YST-1; test: as above
Outline: as §2

[12] = tested on: HS-PSS; test: as above
Outline: as §2

[13] = tested on: STS26T; test: as above
Outline: as §2

[14] = tested on: HS-Sch-2; test: as above
Outline: as §2

[15] = tested on: HSC2 (primary human Schwann cells); test: as above
Outline: as §2

[16] = tested on: HSC1 (primary human Schwann cells); test: drug sensitivity score (DSS, CellTiter-Glo viability, 72 h) (DSS (dimensionless)); higher = more sensitive; extreme values may be limits of the assay
Outline: as §2

[17] = tested on: S1507-2; test: as above
Outline: as §2

[18] = tested on: ST8814; test: as above
Outline: as §2

[19] = tested on: S462; test: as above
Outline: as §2

[20] = tested on: YST-1; test: as above
Outline: as §2

[21] = tested on: HS-PSS; test: as above
Outline: as §2

[22] = tested on: STS26T; test: as above
Outline: as §2

[23] = tested on: HS-Sch-2; test: as above
Outline: as §2

[24] = tested on: HSC2 (primary human Schwann cells); test: as above
Outline: as §2

| Structure (SMILES) | drug sensitivity score [1] | drug sensitivity score [2] | drug sensitivity score [3] | drug sensitivity score [4] | drug sensitivity score [5] | drug sensitivity score [6] | % inhibition [7] | % inhibition [8] | % inhibition [9] | % inhibition [10] | % inhibition [11] | % inhibition [12] | % inhibition [13] | % inhibition [14] | % inhibition [15] | drug sensitivity score [16] | drug sensitivity score [17] | drug sensitivity score [18] | drug sensitivity score [19] | drug sensitivity score [20] | drug sensitivity score [21] | drug sensitivity score [22] | drug sensitivity score [23] | drug sensitivity score [24] |
| --- | --- | --- | --- | --- | --- | --- | --- | --- | --- | --- | --- | --- | --- | --- | --- | --- | --- | --- | --- | --- | --- | --- | --- | --- |
| CN(C)C/C=C/C(=O)Nc1cc2c(Nc3ccc(F)c(Cl)c3)ncnc2cc1O[C@H]1CCOC1 [Afatinib] (max concentration tested 1000 nM) | 0 | 0 | 0 | 0 | 0 | 0 | 8.81% | 11.6 ± 4.3% | 3.12% | 2.97 ± 6.7% | 3.62% | 29.9% | 12.7% | 21.2% | 3.38% | 0 | 1.88 ± 2.7 | 0 | 0 | 0 | 2.49 | 0 | 1.58 | 0 |
| CC(O)(CS(=O)(=O)c1ccc(F)cc1)C(=O)Nc1ccc(C#N)c(C(F)(F)F)c1 (centres undefined) [Bicalutamide] (max concentration tested 10000 nM) | 0 | 0 | 0 | 0 | 0 | 0 | 11.9% | 0.808 ± 0.64% | 7.2% | 7.3 ± 7.9% | -3.03% | 14.1% | 12% | 12.8% | -3.88% | 0.0562 | 0 | 0 | 0.149 ± 0.21 | 0 | 0.45 | 0.0466 | 0.01 | 0 |
| CN(C)/N=N/c1[nH]cnc1C(N)=O [Dacarbazine] (max concentration tested 10000 nM) | 0 | 0.828 ± 1.2 | 0 | 0 | 0 | 0 | 9.74% | -5.83 ± 6.6% | 3.31% | 8.66 ± 8.8% | -4.08% | 7.14% | 23.5% | 7.05% | -1.82% | 0 | 0 | 0 | 0.065 ± 0.092 | 0 | 0 | 1.17 | 0 | 0 |
| CNC(=O)c1ccc(N2C(=S)N(c3cnc(C#N)c(C(F)(F)F)c3)C(=O)C23CCC3)cc1F [ARN 509] (max concentration tested 10000 nM) | 0 | 0.0953 ± 0.14 | 0 | 0 | 0.407 | 0 | -4.96% | 1.5 ± 14% | 9.08% | 5.15 ± 0.46% | 5.31% | 11.9% | 2.87% | 3.75% | -11.5% | 0 | 0 | 0 | 0 | 0 | 2.56 | 0 | 0 | 0 |
| CC(C)(C)c1cc(NC(=O)Nc2ccc(-c3cn4c(n3)sc3cc(OCCN5CCOCC5)ccc34)cc2)no1 [Quizartinib] (max concentration tested 1000 nM) | 0 | 0 | 0 | 0 | 0 | 0 | 47.8% | 21.3 ± 1.4% | 15.8% | 64.2 ± 37% | 78.7% | -10.7% | 15.3% | 14.4% | 36.6% | 3.73 | 1.94 ± 0.75 | 2.56 | 4.8 ± 1.2 | 7.45 | 0 | 1.24 | 0.1 | 1.32 |
| CN(c1ccccc1CNc1nc(Nc2ccc3c(c2)CC(=O)N3)ncc1C(F)(F)F)S(C)(=O)=O (max concentration tested 10000 nM) | 1.33 | 2.52 ± 0.6 | 3.58 | 0.56 | 6.59 | 1.33 | 78.8% | 71.3 ± 1.1% | 71.9% | 100.3 ± 0.78% | 100% | 83.9% | 95.3% | 101% | 84% | 14.5 | 7.1 ± 0.82 | 7.26 | 11.5 ± 0.24 | 10.6 | 5.97 | 9.12 | 6.95 | 13.8 |
